From ChEMBL document CHEMBL3351879, “Isolation, structure elucidation, relative LC-MS response, and in vitro toxicity of azaspiracids from the dinoflagellate Azadinium spinosum” (J Nat Prod, 2014) come the findings set out here.

Holding throughout (assay type): functional, cell-based
Assay [1] is described as follows: Cytotoxicity against human Jurkat E6-1 cells assessed as cell viability after 24 hrs by MTS assay.
A short description of assay [2]: Cytotoxicity against human Jurkat E6-1 cells assessed as cell viability after 48 hrs by MTS assay. Background: Tetrazolium dyes change colour on reduction, which living cells bring about.
The nature of assay [3]: Cytotoxicity against human Jurkat E6-1 cells assessed as cell viability after 72 hrs by MTS assay.

Broadly, the EC50 is the midpoint of the concentration-response curve. With `C=C(C[C@@]12C[C@@H](C)C[C@@H](O1)[C@H]1O[C@]3(C[C@H]1O2)NC[C@H](C)C[C@@H]3C)[C@H]1O[C@@](O)([C@H](O)[C@@H]2CC[C@@H](C/C=C/CC/C=C/CCC(=O)O)O2)[C@H](C)C[C@@H]1C`, the EC50 was found to be 3.3 nM in assay [1], 5.9 nM in assay [2] and 6.4 nM in assay [3].

Consider `C=C(C[C@@]12C[C@@H](C)C[C@@H](O1)[C@H]1O[C@]3(C[C@H]1O2)NC[C@H](C)C[C@@H]3C)[C@H]1O[C@@](O)([C@H](O)[C@@H]2C[C@H]3O[C@@]4(CC[C@]5(CC=C[C@@H](CCC(=O)O)O5)O4)[C@H](C)C[C@H]3O2)[C@H](C)C[C@@H]1C`, for which the EC50 in assay [1] worked out at 0.23 nM; in assay [2], 0.18 nM; in assay [3], 0.2 nM.

Turning to `C=C(C[C@]12C[C@@H](C)C[C@H](O1)[C@H]1O[C@]3(C[C@H]1O2)NC[C@H](C)C[C@@H]3C)[C@H]1O[C@@](O)([C@H](O)[C@@H]2C[C@H]3O[C@@]4(CC[C@]5(CC=C[C@@H](/C=C/CCC(=O)O)O5)O4)[C@H](C)C[C@H]3O2)[C@H](C)C[C@@H]1C`, the EC50 worked out at 0.96 nM in assay [1], 1.1 nM in assay [2] and 1.3 nM in assay [3].
